Data from patent US20260217652A1, “PHENYL-SUBSTITUTED HETEROARYL COMPOUND AND PHARMACEUTICAL COMPOSITION COMPRISING SAME, PREPARATION METHOD THEREFOR AND USE THEREOF” (SHANGHAI MEIYUE BIOTECH DEVELOPMENT CO., LTD., priority 2023, published 2026).
pIC50: −log10 of the molar value.

Test system: not listed separately
Experiment: In vitro liver microsome stability, human
Type: in vitro ADME
Settings: liver microsomes, 0.5 mg/mL microsomes, 1 μM compound, NADPH, 37° C., read-out: Human liver microsomes Half-life T1/2
Experimental: (§1) The reference compound used in this experiment was Ketanserin, and the final concentration of microsomes in the experimental system was 0.5 mg/mL. The PBS buffer was a 50 mM K2HPO4 buffer. The concentration of the test compound was 1 μM. The microsomes were added to PBS, and the control/test compounds were respectively added to the corresponding reaction systems, mixed thoroughly, and pre-incubated in a 37° C. water bath for 5 minutes. The reaction was initiated by adding 20 mM NADPH solution under 37° C. water bath conditions (for the No NADPH samples, an equal volume of PBS solution was used as a substitute for the 20 mM NADPH solution). At the reaction time points of 0 min, 10 min, 30 mun, 60 min, and 90 min, 30 μL of reaction samples were taken from each reaction system (for the No NADPH samples, sampling was performed at 0 min and 90 min), and the reaction was immediately terminated by adding 300 μL of the internal standard acetonitrile solution. After centrifugation at 4000 rpm, the supernatant was taken and mixed thoroughly with an equal volume of pure water. The samples at each time point were analyzed by LC-MS/MS (AB Triple Quard 5500) to determine the compound content, and the T1/2 was calculated.

half-life at 1 μM [h]	SMILES
> 4.66	CNC(=O)c1cccc(-c2cc(-n3c(C)cc(OCc4ncc(F)cc4F)c(Cl)c3=O)c(C)cn2)c1F (single isomer, unassigned) [Compound 20-P2]
> 4.66	Cc1cnc(-c2cccc(S(C)(=O)=O)c2)cc1-n1c(C)cc(OCc2ncc(F)cc2F)c(Cl)c1=O [Compound 11]
> 4.66	Cc1cnc(-c2ccc(F)c(C(C)(C)O)c2)c(F)c1-n1c(C)cc(OCc2ncc(F)cc2F)c(Cl)c1=O [Compound 70-P1]
> 4.66	Cc1cnc(-c2ccc(F)c(C(C)(C)O)c2)cc1-n1c(C)cc(OCc2ncc(F)cc2F)c(Cl)c1=O [Compound 88-P2]
> 4.66	Cc1cnc(-c2ccc(F)c(C(C)(C)O)c2F)cc1-n1c(C)cc(OCc2ncc(F)cc2F)c(Cl)c1=O [Compound 111-P2]
> 4.66	Cc1cnc(-c2cccc([C@@](C)(O)CO)c2F)c(F)c1-n1c(C)cc(OCc2ncc(F)cc2F)c(Cl)c1=O [Compound 112-P1]

Biological target: T1, p38 MAPK/MK2 (Homo sapiens, UniProt Q16539)
T1 construct: purchased Carna (p38α); Abcam (MK2) 04-152; 79910
T1 sequence (Q16539 whole entry): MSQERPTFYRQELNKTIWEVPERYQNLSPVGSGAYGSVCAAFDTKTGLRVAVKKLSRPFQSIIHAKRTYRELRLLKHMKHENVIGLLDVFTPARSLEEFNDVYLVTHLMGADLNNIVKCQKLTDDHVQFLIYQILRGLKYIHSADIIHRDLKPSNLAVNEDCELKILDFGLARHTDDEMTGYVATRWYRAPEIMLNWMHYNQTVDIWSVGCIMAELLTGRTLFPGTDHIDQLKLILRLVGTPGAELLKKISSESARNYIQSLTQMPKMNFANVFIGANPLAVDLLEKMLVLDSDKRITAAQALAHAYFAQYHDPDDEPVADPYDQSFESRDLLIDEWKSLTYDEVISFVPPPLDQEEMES
T1 sequence (P49137 whole entry partner): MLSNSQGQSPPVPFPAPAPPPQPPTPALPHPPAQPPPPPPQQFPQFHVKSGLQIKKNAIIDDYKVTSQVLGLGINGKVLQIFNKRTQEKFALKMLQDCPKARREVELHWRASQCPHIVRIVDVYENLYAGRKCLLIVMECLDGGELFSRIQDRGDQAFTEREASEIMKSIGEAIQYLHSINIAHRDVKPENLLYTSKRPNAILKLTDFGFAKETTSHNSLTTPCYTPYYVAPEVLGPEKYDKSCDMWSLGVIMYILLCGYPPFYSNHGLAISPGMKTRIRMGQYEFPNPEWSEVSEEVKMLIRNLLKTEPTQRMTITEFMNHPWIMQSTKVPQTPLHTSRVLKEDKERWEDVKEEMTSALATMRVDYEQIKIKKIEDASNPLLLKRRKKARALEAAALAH
Experiment: In vitro activity assay of p38 MAPK/MK2 (Z-LYTE kinase assay kit)
Type: biochemical
Settings: active p38α, inactive MK2, Ser/Thr 4; 1-hour reaction at 20° C.
Experimental: The inhibitory effect of the compound on p38 MAPK/MK2 was evaluated using the Z-LYTE kinase assay kit (Thermo, PV3177). The test compound was dissolved in DMSO to obtain a 10 mM stock solution and stored at −20° C. for future use. The initial concentration of the compound was […], with 1% DMSO, 5-fold serial dilution, 8 concentrations, and duplicate wells. […] After a 1-hour reaction at 20° C., Development Reagent A diluted 2048-fold was added to each well, followed by incubation at room temperature for 1 hour. The reaction was terminated by adding 5 μL of stop buffer, and the plate was read using a microplate reader (Ex. 400 nm, Em. 445 nm; Ex. 400 nm, Em. 520 nm). The concentration-effect curve was fitted using GraphPad Prism 8 software, and the compound concentration resulting in 50% inhibition, IC50, was calculated.

pIC50	SMILES
9.57	CNC(=O)c1cccc(-c2cc(-n3c(C)cc(OCc4ncc(F)cc4F)c(Cl)c3=O)c(C)cn2)c1F (single isomer, unassigned) [Compound 20-P2]
7.84	Cc1cnc(-c2cccc(S(C)(=O)=O)c2)cc1-n1c(C)cc(OCc2ncc(F)cc2F)c(Cl)c1=O [Compound 11]
9.42	Cc1cnc(-c2ccc(F)c(C(C)(C)O)c2)c(F)c1-n1c(C)cc(OCc2ncc(F)cc2F)c(Cl)c1=O [Compound 70-P1]
8.68	Cc1cnc(-c2ccc(F)c(C(C)(C)O)c2)cc1-n1c(C)cc(OCc2ncc(F)cc2F)c(Cl)c1=O [Compound 88-P2]
9.66	Cc1cnc(-c2ccc(F)c(C(C)(C)O)c2F)cc1-n1c(C)cc(OCc2ncc(F)cc2F)c(Cl)c1=O [Compound 111-P2]
9.89	Cc1cnc(-c2cccc([C@@](C)(O)CO)c2F)c(F)c1-n1c(C)cc(OCc2ncc(F)cc2F)c(Cl)c1=O [Compound 112-P1]

Test system: not listed separately
Experiment: In vitro liver microsome stability, mouse
Type: in vitro ADME
Settings: liver microsomes, 0.5 mg/mL microsomes, 1 μM compound, NADPH, 37° C., read-out: Mouse liver microsomes Half-life T1/2
Experimental: as §1

half-life at 1 μM [h]	SMILES
> 4.66	CNC(=O)c1cccc(-c2cc(-n3c(C)cc(OCc4ncc(F)cc4F)c(Cl)c3=O)c(C)cn2)c1F (single isomer, unassigned) [Compound 20-P2]
4.22	Cc1cnc(-c2cccc(S(C)(=O)=O)c2)cc1-n1c(C)cc(OCc2ncc(F)cc2F)c(Cl)c1=O [Compound 11]
> 4.66	Cc1cnc(-c2ccc(F)c(C(C)(C)O)c2F)cc1-n1c(C)cc(OCc2ncc(F)cc2F)c(Cl)c1=O [Compound 111-P2]

Test system: TNF-α in human PBMC cells
Experiment: In vitro TNF-α activity assay in human PBMC cell supernatant (LPS, ELISA)
Type: cell-based
Settings: Homo sapiens, PBMC, 24 h, LPS 100 ng/mL, read-out: p38 MAPK/TNF-α IC50
Experimental: The inhibitory effect of the compound on TNF-α in the supernatant of human PBMC cells was evaluated using an ELISA detection kit (Beyotime, PI518). The test compound was dissolved in DMSO to obtain a 10 mM stock solution and stored at −20° C. for future use. The initial concentration of the compound was […], followed by 5-fold serial dilution to obtain 6 concentrations. Cells were plated in duplicate, and ELISA was performed in single wells. The final concentration of DMSO was 0.4%. Alternatively, the initial concentration of the compound, dilution factor, number of concentration gradients, and replicates could be adjusted based on the specific screening conditions.
Fresh human peripheral blood mononuclear cells (PBMCs) (Sailybio) were seeded at a density of 2×10^5 cells per well in a 96-well plate (Corning, 3599), with each well containing 100 μL of RPMI-1640 (Gibco #A1049101)+10% FBS (Gibco, 10099141C), and incubated overnight at 37° C. under 5% CO2. Test compounds were added to the 96-well culture plate at a volume of 25 μL per well. After 1 hour, 5 μL of LPS was added to achieve a final concentration of 100 ng/mL. No LPS and compound were added to the negative control wells, and no compound was added to the positive control wells. The mixture was further incubated for 24 hours at 37° C. under 5% CO2. Subsequently, the cell culture supernatant was collected by centrifugation at 500 rcf for 8 minutes. The concentration of TNF-α was measured according to the operation manual of the ELISA kit. The concentration-effect curve was fitted using GraphPad Prism 8 software, and the compound concentration resulting in 50% inhibition, IC50, was calculated.

SMILES	pIC50
Cc1cnc(-c2cccc(S(C)(=O)=O)c2)cc1-n1c(C)cc(OCc2ncc(F)cc2F)c(Cl)c1=O [Compound 11]	7.74
Cc1cnc(-c2ccc(F)c(C(C)(C)O)c2)c(F)c1-n1c(C)cc(OCc2ncc(F)cc2F)c(Cl)c1=O [Compound 70-P1]	7.95
Cc1cnc(-c2ccc(F)c(C(C)(C)O)c2F)cc1-n1c(C)cc(OCc2ncc(F)cc2F)c(Cl)c1=O [Compound 111-P2]	8.84
Cc1cnc(-c2cccc([C@@](C)(O)CO)c2F)c(F)c1-n1c(C)cc(OCc2ncc(F)cc2F)c(Cl)c1=O [Compound 112-P1]	9.36

Same assay, conditions: LPS 100 ng/mL, 24 hours, read-out: p38 MAPK/TNF-α IC50

SMILES	pIC50
CNC(=O)c1cccc(-c2cc(-n3c(C)cc(OCc4ncc(F)cc4F)c(Cl)c3=O)c(C)cn2)c1F (single isomer, unassigned) [Compound 20-P2]	8.38

Test system: not listed separately
Experiment: In vitro liver microsome stability, rat
Type: in vitro ADME
Settings: liver microsomes, 0.5 mg/mL microsomes, 1 μM compound, NADPH, 37° C., read-out: Rat liver microsomes Half-life T1/2
Experimental: as §1

half-life at 1 μM [h]	SMILES
> 4.66	CNC(=O)c1cccc(-c2cc(-n3c(C)cc(OCc4ncc(F)cc4F)c(Cl)c3=O)c(C)cn2)c1F (single isomer, unassigned) [Compound 20-P2]
3.79	Cc1cnc(-c2cccc(S(C)(=O)=O)c2)cc1-n1c(C)cc(OCc2ncc(F)cc2F)c(Cl)c1=O [Compound 11]
> 4.66	Cc1cnc(-c2ccc(F)c(C(C)(C)O)c2F)cc1-n1c(C)cc(OCc2ncc(F)cc2F)c(Cl)c1=O [Compound 111-P2]
